Counter-ions that a name gives are not always drawn.
The molecules below were run against T1, human B2 receptor (Homo sapiens, UniProt P30411) (assay: binding to the human B2 receptor expressed in human fibroblasts W138). Details: not given.
T1 construct: human B2 receptor expressed in human fibroblasts W138; endogenous in cells; host or cells: human fibroblasts W138 (WI-38)
T1 sequence (P30411 1-391): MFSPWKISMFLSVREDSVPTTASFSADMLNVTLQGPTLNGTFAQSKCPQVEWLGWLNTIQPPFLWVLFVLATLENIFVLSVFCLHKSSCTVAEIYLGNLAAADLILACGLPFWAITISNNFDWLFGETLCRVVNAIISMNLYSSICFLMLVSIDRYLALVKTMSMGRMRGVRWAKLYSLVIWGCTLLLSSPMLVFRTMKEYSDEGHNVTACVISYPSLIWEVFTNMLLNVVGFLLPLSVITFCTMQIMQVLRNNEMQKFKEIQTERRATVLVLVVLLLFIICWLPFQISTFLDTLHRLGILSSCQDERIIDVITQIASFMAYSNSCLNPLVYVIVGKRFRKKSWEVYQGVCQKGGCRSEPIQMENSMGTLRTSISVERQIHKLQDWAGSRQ
Source text: In the following the binding values are reported expressed as pKi.
Cc1cc(C)c2cccc(OCc3c(Cl)ccc(S(=O)(=O)NC4(C(=O)N5CCC(C[N+](C)(C)CCCCC[N+](C)(C)C)CC5)CCCC4)c3Cl)c2n1 [Example 86, {5-[(1-{1-[2,4-Dichloro-3-(2,4-dimethyl-quinolin-8-yloxymethyl)-benzensulfonylamino]-cyclopentanecarbonyl}-piperidin-4-ylmethyl)-dimethyl-ammonium]-pentyl}-trimethyl-ammonium tris trifluoroacetate] showed a Ki of 0.398 nM.
For Cc1cc(C)c2cccc(OCc3c(Cl)ccc(S(=O)(=O)NC4(C(=O)N5CCN(C(=N)NCCCCCCN)CC5)CCCC4)c3Cl)c2n1 [Example 95, N-(6-Amino-hexyl)-4-{1-[2,4-dichloro-3-(2,4-dimethyl-quinolin-8-yloxymethyl)-benzenesulfonylamino]-cyclopentanecarbonyl}-piperazine-1-carboxamidine bis trifluoroacetate], the Ki was 0.501 nM.

Same assay, conditions: human B2 receptor expressed in human fibroblasts W138
Cc1cc(C)c2cccc(OCc3c(Cl)ccc(S(=O)(=O)NC4(C(=O)N5CCN(C(=O)C[C@H](CCCNC(=NC6CCCCC6)NC6CCCCC6)NC(=NC6CCCCC6)NC6CCCCC6)CC5)CCCC4)c3Cl)c2n1.O=C(O)C(F)(F)F.O=C(O)C(F)(F)F.O=C(O)C(F)(F)F [Example 80, N-(1-{4-[3-(S),6-Bis-(N′,N″-dicyclohexyl-guanidino)-hexaoyl]-piperazine-1-carbonyl}-cyclopentyl)-2,4-dichloro-3-(2,4-dimethyl-quinolin-8-yloxymethyl)-benzensulfonamide tris trifluoroacetate] showed a pKi of 9.2.
Cc1cc(C)c2cccc(OCc3c(Cl)ccc(S(=O)(=O)NC4(C(=O)N5CCN(C(=O)CCC[N+](C)(C)C)CC5)CCCC4)c3Cl)c2n1 [Example 83, N-{1-[4-(4-Trimethylammonium-butanoyl)-piperazine-1-carbonyl]-cyclopentyl}-2,4-dichloro-3-(2,4-dimethyl-quinolin-8-yloxymethyl)-benzenesulfonamide bis trifluoroacetate] showed a pKi of 9.4.
Cc1cc(C)c2cccc(OCc3c(Cl)ccc(S(=O)(=O)NC4(C(=O)N5CCN(C(=O)[C@H](CCCCN)[N+](C)(C)C)CC5)CCCC4)c3Cl)c2n1 [Example 90, N-[1-[4-(2-(S)-Trimethylammonium-6-amino-hexanoyl)-piperazin-1-yl]-cyclopentyl]-2,4-dichloro-3-(2,4-dimethyl-quinolin-8-yloxymethyl)-benzenesulfonamide tris trifluoroacetate] gave a pKi of 9.9.
Cc1cc(C)c2cccc(OCc3c(Cl)ccc(S(=O)(=O)NC4(C(=O)N5CCN(C(=O)CCCCC[N+](C)(C)C)CC5)CCCC4)c3Cl)c2n1 [Example 91, N-{1-[4-(6-Trimethylammonium-hexanoyl)-piperazine-1-carbonyl]-cyclopentyl}-2,4-dichloro-3-(2,4-dimethyl-quinolin-8-yloxymethyl)-benzenesulfonamide bis trifluoroacetate] gave a pKi of 9.3.
For Cc1cc(C)c2cccc(OCc3c(Cl)ccc(S(=O)(=O)NC4(C(=O)N5CCN(C(=O)C[C@@H](N)CCC[N+](C)(C)C)CC5)CCCC4)c3Cl)c2n1.Cc1cc(C)c2cccc(OCc3c(Cl)ccc(S(=O)(=O)NC4(C(=O)N5CCN(C(=O)C[C@@H](N)CCC[N+](C)(C)C)CC5)CCCC4)c3Cl)c2n1.O=C([O-])C(F)(F)F.O=C([O-])C(F)(F)F [Example 107, [4-(S)-Amino-6-(4-{1-[2,4-dichloro-3-(2,4-dimethyl-quinolin-8-yloxymethyl)-benzenesulfonylamino]-cyclopentanecarbonyl}-piperazin-1-yl)-6-oxohexyl]-trimethylammonium bis trifluoroacetate], the pKi was 9.7.
“N-[1-[4-(2-(S)-Dimethylamino-6-dimethylamino-hexanoyl)-piperazin-1-yl]-cyclopentyl]-2,4-dichloro-3-(2,4-dimethyl-quinolin-8-yloxymethyl)-benzenesulfonamide tris trifluoroacetate [Example 85]” was tested, and the pKi was 9.3.
Molecule “N-[1-[4-(2-(S)-Trimethylammonium-6-trimethylammonium-hexanoyl)-piperazin-1-yl]-cyclopentyl]-2,4-dichloro-3-(2,4-dimethyl-quinolin-8-yloxymethyl)-benzenesulfonamide tris trifluoroacetate [Example 88]” has a pKi of 9.7.

Same assay, conditions: human B2 receptor expressed in human fibroblasts W138; read-out: pKi (converted)
For Cc1cc(C)c2cccc(OCc3c(Cl)ccc(S(=O)(=O)NC4(C(=O)N5CCN(C(=O)[C@@H](N)CC6CCNCC6)CC5)CCCC4)c3Cl)c2n1 [Example 81, N-{1-[4-(2-(S)Amino-3-piperidin-4-yl-propionyl)-piperazine-1-carbonyl]-cyclopentyl}-2,4-dichloro-3-(2,4-dimethyl-quinolin-8-yloxymethyl)-benzenesulfonamide tris trifluoroacetate], the Ki was 0.631 nM.
For Cc1cc(C)c2cccc(OCc3c(Cl)ccc(S(=O)(=O)NC4(C(=O)N5CCN(C(=O)C[N+](C)(C)C)CC5)CCCC4)c3Cl)c2n1 [Example 82, N-{1-[4-(2-Trimethylammonium-acetyl)-piperazine-1-carbonyl]-cyclopentyl}-2,4-dichloro-3-(2,4-dimethyl-quinolin-8-yloxymethyl)-benzenesulfonamide bis trifluoroacetate], the Ki was 0.631 nM.
In the case of Cc1cc(C)c2cccc(OCc3c(Cl)ccc(S(=O)(=O)NC4(C(=O)N5CCN(C(=O)C[C@@H](O)C[N+](C)(C)C)CC5)CCCC4)c3Cl)c2n1 [Example 84, N-{1-[4-(3(R)-Hydroxy-4-trimethylammonium-butanoyl)-piperazine-1-carbonyl]-cyclopentyl}-2,4-dichloro-3-(2,4-dimethyl-quinolin-8-yloxymethyl)-benzenesulfonamide bis trifluoroacetate], the Ki is reported as 0.631 nM.
Work on Cc1cc(C)c2cccc(OCc3c(Cl)ccc(S(=O)(=O)NC4(C(=O)N5CCN(C(=N)NCCNCCCN)CC5)CCCC4)c3Cl)c2n1 [Example 96, N-[2-(3-Amino-propylamino)-ethyl]-4-{1-[2,4-dichloro-3-(2,4-dimethyl-quinolin-8-yloxymethyl)-benzenesulfonylamino]-cyclopentanecarbonyl}-piperazine-1-carboxamidine bis trifluoroacetate] yielded a Ki of 0.794 nM.
Molecule Cc1cc(C)c2cccc(OCc3c(Cl)ccc(S(=O)(=O)NC4(C(=O)N5CCN(C[C@H](N)CCCCN)CC5)CCCC4)c3Cl)c2n1 [Example 98, 2,4-Dichloro-N-{1-[4-(2(R),6-diamino-hexyl)-piperazine-1-carbonyl]-cyclopentyl}-3-(2,4-dimethyl-quinolin-8-yloxymethyl)-benzenesulfonamide tetra trifluoroacetate] has a Ki of 0.631 nM.
In the case of Cc1cc(C)c2cccc(OCc3c(Cl)ccc(S(=O)(=O)NC4(C(=O)N5CCN(CCN6CCNCC6)CC5)CCCC4)c3Cl)c2n1 [Example 100, 2,4-Dichloro-3-(2,4-dimethyl-quinolin-8-yloxymethyl)-N-{1-[4-(2-piperazin-1-yl-ethyl)-piperazine-1-carbonyl]-cyclopentyl}-benzenesulfonamide tetra trifluoroacetate], the Ki is reported as 0.398 nM.
CNCCCCCNCC1CCN(C(=O)C2(NS(=O)(=O)c3ccc(Cl)c(COc4cccc5c(C)cc(C)nc45)c3Cl)CCCC2)CC1 [Example 106, 2,4-Dichloro-3-(2,4-dimethyl-quinolin-8-yloxymethyl)-N-(1-{4-[(5-methylamino-pentylamino)-methyl]-piperidine-1-carbonyl}-cyclopentyl)-benzenesulfonamide tris trifluoroacetate] was tested, and the Ki was 0.398 nM.

— US7491825B2, “Basic non-peptide bradykinin antagonists and pharmaceutical compositions therefrom” (Menarini Ricerche S.p.A., priority 2002, dated 2009)
